The text below walks through data of publication PMC5787524, “Discovery of a FLT3 inhibitor LDD1937 as an anti-leukemic agent for acute myeloid leukemia” (Oncotarget, 2017).

A word on the GI50: it is the concentration at which growth is held to half of that of the control. By AUC is commonly meant the area under the concentration-time curve, a measure of exposure. As usually defined, the Cmax is the maximum level reached in the sampled fluid or tissue.

Several values for one entry are separate records, joined by “and”; a condition that tells them apart may be missing. Equal entries are not always repeated.

The target in data set [1] is T1, FLT3 (Homo sapiens, UniProt P36888).
T1 construct: Recombinant proteins containing the FLT3 kinase domain were purchased from Carna biosciences (Japan); purchased Carna biosciences (Japan)
T1 sequence (P36888 610-943 limits assumed): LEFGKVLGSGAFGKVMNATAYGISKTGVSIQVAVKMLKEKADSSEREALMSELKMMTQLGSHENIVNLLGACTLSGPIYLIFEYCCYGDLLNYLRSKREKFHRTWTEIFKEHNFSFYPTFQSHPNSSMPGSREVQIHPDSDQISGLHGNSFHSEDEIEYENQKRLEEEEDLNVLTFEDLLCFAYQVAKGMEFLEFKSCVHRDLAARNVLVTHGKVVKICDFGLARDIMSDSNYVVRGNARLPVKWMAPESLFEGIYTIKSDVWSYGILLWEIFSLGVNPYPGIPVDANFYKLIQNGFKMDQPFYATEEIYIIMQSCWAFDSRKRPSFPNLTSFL
The experiment in a line: In vitro FLT3 kinase assay (HTRF). To be noted: recombinant FLT3, HTRF; read-out: IC50 FLT3 kinase activity. It counts as biochemical. As to the method:
The inhibition of the FLT3 kinase activity was measured with homogeneous, time-resolved fluorescence (HTRF) assays. Recombinant proteins containing the FLT3 kinase domain were purchased from Carna biosciences (Japan). Optimal enzyme, ATP, and substrate concentrations were established with the HTRF KinEASE kit (Cisbio, France) according to the manufacturer’s instructions. The FLT3 enzymes were mixed with serially diluted compounds and peptide substrates in a kinase reaction buffer (50 mM HEPES (pH 7.0), 500 μM ATP, 0.1 mM sodium orthovanadate, 5 mM MgCl2, 1 mM DTT, 0.01% bovine serum albumin (BSA), and 0.02% NaN3). After the addition of the reagents for detection, the TR-FRET signal was measured with a Victor multilabel reader (Perkin Elmer, Waltham, MA, USA). […] JAK2, JAK3, cMET, and RET in vitro kinase assays were also carried out using the HTRF assay kit.
For orientation: TR-FRET usually uses a lanthanide donor and a delayed reading to cut background.

Data set [2] has as its system MV-4-11 cells. The experiment in a line: Cell viability / growth inhibition (EZ-Cytox), MV-4-11. The class given is cell-based, human. To be noted: 72 h; called IC50 in supplementary text. As to the method: The cultured cells were incubated at 37°C with 5% CO2. Cell viability was assessed with a tetrazolium-based assay using the EZ-Cytox Cell Viability Assay kit (DaeilLab, Korea). Briefly, 2,000 ∼ 15,000 cells were plated in 96-well flat bottom plates in 100 µl of medium. The next day, the cells were treated with compounds along with dimethyl sulfoxide (DMSO, Fisher, Waltham, MA, USA) as a negative control. […] After incubation, the optical density (OD) was measured at a wavelength of 450 nm with a Victor multilabel reader (Perkin Elmer, Waltham, MA, USA).

Data set [3] can be described thus: Pharmacokinetics in mice (intravenous and oral). It counts as in vivo, ICR mice. To be noted: for AUC1940/AUC1937 / AUC / Ae0–24 h / Cmax / GI24 h / Terminal half-life / Tmax: mice. How it is done: The protocols for the animal studies were approved by the Institute of Laboratory Animal Resources of Dongguk University, Seoul, South Korea (IACUC-2015-055-1). Five-week-old male Imprinting Control Region (ICR) mice were purchased from the Charles River Company Korea (Orient, Seoul, South Korea). Upon arrival, the animals were randomized and housed four per cage under strictly controlled environmental conditions (22-25°C and 48-52% relative humidity) with a 12 h light/dark cycle at an intensity of 150 to 300 Lux. All mice were provided food and water ad libitum and were then maintained during this study. In the intravenous study of LDD1937, 10 mg/kg of LDD1937 (dissolved in distilled water at a concentration of 2 mg/ml) were intravenously injected into the mice through the tail vein. A blood sample of approximately 0.12 ml was collected by cardiac puncture. Additionally, in the oral study of LDD1937, 10 mg/kg of LDD1937 (dissolved in the same solution used in the intravenous study) were orally administered to the mice. The analysis of LDD1937 and LDD1940, a metabolite of LDD1937, in biological samples was done with LC-MS/MS using the Waters UPLC-XEVO TQ system (Waters Corporation, Milford, CT, USA). […]1940, and carbamazepine (an internal standard, IS) were ionized in the multiple reaction monitoring mode with an ESI interface for positive ions ([M+H]^+). The turbo ion-spray interface was operated at an ion capillary voltage of 3.0 kV with a desolvation gas flow of 650 l/h and a cone gas flow of 10 l/h at 350°C. […] Separation was done on a reverse-phase C18 column (BEH, […]; Waters, Ireland) with a mobile phase, distilled water containing 0.1% formic acid and acetonitrile, at 30°C. After measuring the concentrations of the LDD1937 and LDD1940, standard methods were used to calculate the pharmacokinetic parameters using a non-compartmental analysis (WinNonlin 2.1; […] Corp., Mountain View, CA, USA).

For data set [4], the system named is FLT3, VEGFR1/2, PDGFRβ, and PKCα/β/γ. On the set-up: method as in PMID 10888033. To be noted: read-out: IC50s against kinases including FLT3, VEGFR1/2, PDGFRβ, and PKCα/β/γ; cited from earlier work.
The mark [5] stands for this setting: metabolite LDD1940 after 10 mg/kg LDD1937 intravenous.
The mark [6] stands for this setting: metabolite LDD1940 after 10 mg/kg LDD1937 oral.

For the compound `O=C1Nc2ccc(C(=O)O)cc2/C1=C1/Nc2ccccc2/C1=N\OCCN1CCOCC1` [Compound 12], the IC50 in data set [1] was found to be 7.55 ± 1.01 nM. The same compound registered a concentration for 50% growth inhibition (GI50) in data set [2] of more than 1000 nM.

For `O=C1Nc2ccc(C(=O)O)cc2/C1=C1/Nc2ccccc2/C1=N\OCCBr` [Compound 8], the IC50 in data set [1] was 12.9 ± 0.97 nM. In data set [2], growth was halved (GI50) at 340 ± 81 nM.

Consider `Cl.Cl.O=C1Nc2ccc(C(=O)O)cc2/C1=C1/Nc2ccccc2/C1=N\OCCN1CCNCC1` [LDD1940], for which the IC50 in data set [1] is 2.45 nM and 2.5 nM. The compound further showed a GI50 in data set [2] of 40 nM. In addition, the AUC1940/AUC1937 in data set [3] (after 10 mg/kg LDD1937 intravenous) was 42.7 ± 9.44%. Further, the AUC1940/AUC1937 in data set [3] (after 10 mg/kg LDD1937 oral) stood at 65.3 ± 16.8%. In addition, the “Tmax of LDD1940” value in data set [3] (after intravenous and oral administration of LDD1937, mice (span over both routes)) is listed as 1∼15 min. Further, in data set [3] (setting [5]), the AUC turned out to be 54.6 ± 0.592 µg·min/mL, the “Ae0–24 h” value was 0.868 ± 0.0333 % of dose, the Cmax is 1450 ± 694 µg/mL and the GI24 h is recorded as 0.719 ± 0.0556 % of dose. Further, in data set [3] (setting [5]), the Terminal half-life is 2.37 ± 2.02 h and the Tmax is 1 (1–1) min. In data set [3] (setting [6]), the exposure (AUC) is 1.84 ± 0.0741 µg·min/mL, the “Ae0–24 h” value is listed as 0.0787 ± 0.0791 % of dose, the Cmax was found to be 8.17 ± 2.44 µg/mL and the GI24 h is 0.792 ± 1.09 % of dose. For the same compound, in data set [3] (setting [6]), the Terminal half-life was determined as 12.4 ± 2.15 h and the Tmax is 15 (15–120) min.

As to `COC(=O)c1ccc2c(c1)/C(=C1/Nc3ccccc3/C1=N\OCCN1CCOCC1)C(=O)N2` [Compound 6], the IC50 in data set [1] was 253 ± 81.4 nM. The compound also registered a 50% growth inhibitory concentration (GI50) in data set [2] of 53 ± 11 nM.

Consider `COC(=O)c1ccc2c(c1)/C(=C1/Nc3ccccc3/C1=N\OCCBr)C(=O)N2` [Compound 2], for which the IC50 in data set [1] was determined as 19.2 ± 1.88 nM. This compound displayed a 50% growth inhibitory concentration (GI50) in data set [2] of 51 ± 11 nM.

Regarding `CO[C@@H]1[C@H](N(C)C(=O)c2ccccc2)C[C@H]2O[C@]1(C)n1c3ccccc3c3c4c(c5c6ccccc6n2c5c31)C(=O)NC4` [midostaurin], in data set [4], the IC50 is […].

For the compound `CN1CCN(CCO/N=C2/C(=C3/C(=O)Nc4ccc(C(=O)O)cc43)Nc3ccccc32)CC1` [Compound 11], the IC50 in data set [1] was 3.3 ± 0.6 nM. In data set [2], this compound displayed a concentration for 50% growth inhibition (GI50) of 176 ± 51 nM.

In the case of `NCCO/N=C1/C(=C2/C(=O)Nc3ccc(C(=O)O)cc32)Nc2ccccc21` [Compound 9], in data set [1], the IC50 was determined as 3.3 ± 0.11 nM. Also, in data set [2], it took 150 ± 33 nM to inhibit growth by half (GI50).

Turning to `COC(=O)c1ccc2c(c1)/C(=C1/Nc3ccccc3/C1=N\OCCN)C(=O)N2` [Compound 3], the IC50 in data set [1] stood at 4.5 ± 0.75 nM. The GI50 in data set [2] was 15 ± 3 nM.

As for `COC(=O)c1ccc2c(c1)/C(=C1/Nc3ccccc3/C1=N\OCCN1CCN(C)CC1)C(=O)N2` [Compound 5], the IC50 in data set [1] stood at 10.8 ± 2.02 nM. This compound gave a GI50 in data set [2] of 11 ± 1.5 nM.

Regarding `O=C1Nc2ccc(C(=O)O)cc2/C1=C1/Nc2ccccc2/C1=N\O` [Compound 7], in data set [2], the concentration for 50% growth inhibition (GI50) was more than 1000 nM and the “GI50 MV-4-11” value is listed as “lack of an anti-proliferative activity”.
